According to US12103939B2, “Solid pharmaceutical gold-based composition” (KING FAHD UNIVERSITY OF PETROLEUM AND MINERALS, priority 2019, dated 2024):

Columns and labels:
Format in all cases: cell-based, human
[1] = tested on: cisplatin- and doxorubicin-resistant A2780cis clone; experiment: Cytotoxicity assay (MTT, 72 h); conditions: for IC50: A2780cis, MTT after 72 h, mean (SD); for FR (A2780cis/A2780), fold resistance: IC50 A2780cis / IC50 A2780
Description: (§1) R-ME-180 and A2780cis cells were maintained in 1 μM cisplatin. Adipose-derived stromal cells were maintained in MSCGM BulletKit medium (Lonza). All cell lines were cultured at 37° C. in a 5% CO2, fully humidified atmosphere
(§2) Cell lines were seeded in 96-well flat-bottomed microplates in 100 μL culture medium at the following densities: DU145, PC3 and MCF-7 cells (2.5×10^3 cells/well); A2780, A2780cis, ME-180, R-ME-180 and A549 cells (4.0×10^3 cells/well); and MG-63 cells (2.0×10^3 cells/well). Cells were allowed to adhere for 24 h. Then the medium was replaced with fresh medium alone or with one of the gold(III) complexes at increasing concentrations from 0 to 100 μM. The reference drugs cisplatin (0-100 μM) and doxorubicin (0-1 μM) were included as positive controls for growth inhibition. After 72 h, cell viability was assayed using the MTT assay.
(§3) See Chou T. C.; Talalay P. Quantitative analysis of dose-effect relationships: the combined effects of multiple drugs or enzyme inhibitors. […] 22, 27-55, incorporated herein by reference in its entirety. IC50 values were reported as mean (SD). For drug-resistance cell lines, fold resistance (FR) was calculated as the ratio of the IC50 of the resistant cell line to the IC50 of the parental cell line.

[2] = tested on: MG-63 osteosarcoma cell line; experiment: Cytotoxicity assay (MTT, 72 h); conditions: MG63, MTT after 72 h, mean (SD); read-out: Half-maximal inhibitory concentration (IC50)
Description: as §1, §2, §3

[3] = tested on: cisplatin-resistant R-ME-180 clone; experiment: Cytotoxicity assay (MTT, 72 h); conditions: for IC50: R-ME-180, MTT after 72 h, mean (SD); for FR (R-ME-180/ME-180), fold resistance: IC50 R-ME-180 / IC50 ME-180
Description: as §1, §2, §3

[4] = tested on: A549 lung cancer cell line; experiment: Cytotoxicity assay (MTT, 72 h); conditions: A549, MTT after 72 h, mean (SD); read-out: Half-maximal inhibitory concentration (IC50)
Description: as §1, §2, §3

[5] = tested on: DU145 prostate cancer cell line; experiment: Cytotoxicity assay (MTT, 72 h); conditions: DU145, MTT after 72 h, mean (SD); read-out: Half-maximal inhibitory concentration (IC50)
Description: as §1, §2, §3

[6] = tested on: PC3 prostate cancer cell line; experiment: Cytotoxicity assay (MTT, 72 h); conditions: PC3, MTT after 72 h, mean (SD); read-out: Half-maximal inhibitory concentration (IC50)
Description: as §1, §2, §3

[7] = tested on: cervical cancer cell line ME-180; experiment: Cytotoxicity assay (MTT, 72 h); conditions: ME-180, MTT after 72 h, mean (SD)
Description: as §1, §2, §3

[8] = tested on: MCF-7 breast cancer cell line; experiment: Cytotoxicity assay (MTT, 72 h); conditions: MCF-7, MTT after 72 h, mean (SD); read-out: Half-maximal inhibitory concentration (IC50)
Description: as §1, §2, §3

[9] = tested on: ovarian cancer cell line A2780; experiment: Cytotoxicity assay (MTT, 72 h); conditions: A2780, MTT after 72 h, mean (SD)
Description: as §1, §2, §3

PC3 cells = experiment: Cellular uptake of gold(III) complexes (ICP-MS); conditions: 3 μM, 2 h, ICP mass spectrometry
Description: After treatment, monolayers were washed with ice-cold PBS four times, and the cells were detached with trypsin-EDTA and washed three times with ice-cold PBS by centrifugation. The cell pellet was solubilized in 700 μL of HNO3—HCl solution (1:3 molar ratio) for 2 h at 100° C., and then diluted with 4 mL water. Samples were analyzed for gold on an Agilent 7500 inductively coupled plasma mass spectrometer (ICP-MS). Results were expressed as ng gold/10^6 cells. The experiment was performed a total of two times and the results were expressed as mean and SD.

SMILES: [Cl-].[Cl-].[Cl][Au-]1([Cl])[n+]2ccc[n+]3c2-c2[n+]1ccc[n+]2[Au-]3([Cl])[Cl] [C5, [Au2(BPM)(Cl)4]Cl2]
- IC50 [1]: 16.2 µM
- FR (A2780cis/A2780), fold resistance [1]: 1.1
- IC50 [2]: 26 µM
- IC50 [3]: > 80 µM
- IC50 [4]: > 80 µM
- IC50 [5]: > 80 µM
- IC50 [6]: > 80 µM
- IC50 [7]: > 80 µM
- IC50 [8]: 65 µM
- IC50 [9]: 15.4 µM

SMILES: CC[N+](CC)=C1[S][Au-]2([S]1)[n+]1ccc[n+]3c1-c1[n+]2ccc[n+]1[Au-]31[S]C(=[N+](CC)CC)[S]1.[Cl-].[Cl-].[Cl-].[Cl-] [C7, [Au2(BPM)(DEDTC)2]Cl4]
- amount of internalized gold (cellular uptake) (PC3 cells): greater uptake
- IC50 [1]: 0.3 µM
- FR (A2780cis/A2780), fold resistance [1]: 0.9
- IC50 [2]: 0.7 µM
- FR (R-ME-180/ME-180), fold resistance [3]: 0.9
- IC50 [3]: 4.1 µM
- IC50 [4]: 1.4 µM
- IC50 [5]: 0.8 µM
- IC50 [6]: 0.8 µM
- IC50 [8]: 0.6 µM

SMILES: [Cl-].[Cl-].[Cl-].[Cl-].c1ccc(C[N+](Cc2ccccc2)=C2[S][Au-]3([S]2)[n+]2ccc[n+]4c2-c2[n+]3ccc[n+]2[Au-]42[S]C(=[N+](Cc3ccccc3)Cc3ccccc3)[S]2)cc1 [C8, [Au2(BPM)(DBDTC)2]Cl4]
- IC50 [1]: 5.2 µM
- FR (A2780cis/A2780), fold resistance [1]: 1.4
- IC50 [2]: 5.8 µM
- FR (R-ME-180/ME-180), fold resistance [3]: 1.0
- IC50 [3]: 16 µM
- IC50 [4]: 23 µM
- IC50 [5]: 22.8 µM
- IC50 [6]: 19.5 µM
- IC50 [7]: 15 µM
- IC50 [8]: 9.5 µM
- IC50 [9]: 3.8 µM

SMILES: N.N.[Cl][Pt][Cl] [Cisplatin, reference compound]
- IC50 [1]: 10.4 µM
- FR (A2780cis/A2780), fold resistance [1]: 6.9
- FR (R-ME-180/ME-180), fold resistance [3]: 4.5
- IC50 [3]: 68 µM
- IC50 [5]: 4.5 µM
- IC50 [6]: 3.3 µM
- IC50 [7]: 15 µM
- IC50 [9]: 1.5 µM

SMILES: COc1cccc2c1C(=O)c1c(O)c3c(c(O)c1C2=O)C[C@@](O)(C(=O)CO)C[C@@H]3O[C@H]1C[C@H](N)[C@H](O)[C@H](C)O1 [Doxorubicin, reference compound]
- IC50 ([1]; Homo sapiens): 0.12 µM
- FR (A2780cis/A2780), fold resistance [1]: 9.0
- IC50 ([9]; Homo sapiens): 0.02 µM
